Measured values taken from patent publication US7700109B2, “Biomolecule transduction motif Mph-1-BTM and the use thereof” (ForHumanTech. Co., Ltd., priority 2002, dated 2010).

Tests used:
Jurkat T cells = test: Screening of candidate PTD-β-galactosidase fusion proteins for transduction; format: cell-based; conditions: fusion with β-galactosidase
Text: Based on these two hypotheses and requisites, we searched the gene bank. With the factor that the conventional PTDs have lysines and arginines abundantly, we selected about 10,000 primary candidate genes. Among them, 500 genes were chosen by applying the requisites of signal peptide, and 100 genes of the 500 genes were confirmed as to have alanine and valine. Finally, 20 genes were selected by applying the factors required for the transcription factors, and then the transduction efficiencies were tested therefor. In addition, fusion proteins of each of these candidate PTDs and β-galactosidase were expressed and purified, and the functions of these proteins were detected using Jurkat T cells.

[1] = tested on: HUVEC, HeLa, 293 and Jurkat cells; test: Transduction of fusion protein across cell membrane, β-galactosidase staining on slides; format: cell-based; conditions: 0.5 μM, 30 min at 37° C., HeLa, 293, Jurkat cells
Protocol: HUVEC (ATCC:CRL-1730) (2×10^5), HeLa (ATCC:CCL-2) (2×10^5), and 293 (ATCC:CRL-1573) (2×10^5), which were incubated in 10% FBS (Fetal Bovine Serum) of DMEM, were respectively transferred to Lab-tek II chamber slides. Jurkat cells (ATCC:CRL-10915) (2×10^5) incubated in 10% EBS RPMI were transferred to poly-L-lysin coated slides. Each of the slides was treated with the purified 0.5 μM of Mph-1-β-galactosidase for 30 min at 37° C. in 5% CO2 incubator. And the supernatants were removed from the slides. The incubation mixtures were washed using ice-cold PBS four times and then were solidified with 2% formaldehyde solution for 10 min. After removing the solidified solutions, the mixtures were washed again using ice-cold PBS four times. Subsequently, the respective mixtures were treated with 700 μl of β-galactosidase staining solution (Roche. Colo.) for 45 min at 37° C. in 5% CO2 incubator. Following the staining, the mixtures were washed with ice-cold PBS four times after removing the supernatants. Next, the mixtures were mounted with 70% glycerol on the microscope slides.

Substance | transduction ability (Jurkat T cells) | transduction across the cell membranes (β-galactosidase staining) [1]
Mph-1-BTM: amino acid sequence 858 to 868 of Mph-1, a mouse transcription factor (SEQ ID NO:1) (YARVRRRGPRR; Biomolecule transduction motif) | unexpectedly significant transduction ability | 
β-gal: β-galactosidase reporter protein alone, without transduction peptide |  | not transduced at all
